Measurements: patent US20240052316A1, “STEM CELL PRIMING COMPOSITION AND PRIMED STEM CELL” (SCM LIFESCIENCE CO., LTD., priority 2020, published 2024)

Test system: IDO and TSG6
Assay: qRT-PCR of IDO and TSG6 expression in primed mesenchymal stem cells (joint statements)
Type: cell-based
Conditions: 24 hours; for expression of IDO and TSG6 compared to untreated control group 0: Table 1 groups, FIG. 4; for lowest effective concentration capable of inducing significantly increased expression of both TSG6 and IDO: tested 5, 10, 20 ng/ml (TNF-α, IFN-γ) and 10, 20, 40 ng/ml (IFN-α), FIGS. 1-3
Procedure: In a 37° C. and 5% CO2 incubator, mesenchymal stem cells in a storage state (LN2 tank storage) were thawed and cultured, and at this time, the cells were cultured in a medium (DMEM, alpha-MEM) containing 10% FBS or 4% hPL until proliferated to a cell confluence of about 80%. The cultured mesenchymal stem cells were seeded in a 100 mm dish, and treated with candidate substances for reinforcing the functions of the mesenchymal stem cells for 24 hours, and then the concentrations of primary candidate substances for reinforcing the functions were set.
TNF-α and IFN-γIFN-α were selected as the primary candidate substances, and in order to confirm the lowest effective concentration capable of increasing the expression of TNFα-stimulated gene-6 (TSG6) and indoleamine 2,3-dioxygenase (IDO) to confirm the reinforced functions, the stem cells were treated with 5, 10, and 20 ng/ml of TNF-α, 5, 10, and 20 ng/ml of IFN-γ, and 10, 20, and 40 ng/ml of IFN-α, respectively, and changes in expression of TSG6 and IDO were confirmed.
The IDO was known as an immunomodulatory factor that inhibited the proliferation of immune cells such as T cells by converting tryptophan, which was essential for T cell proliferation, into kynurenine, and the TSG6 was known as an anti-inflammatory regulator secreted by mesenchymal stem cells. After culturing the stem cells, total RNA was isolated using TRIzol (Invitrogen), and then cDNA was synthesized from total RNA using PrimeScriptTMRT reagent Kit with gDNA Eraser (TaKaRa), and qRT-PCR was performed. The results of TSG6 and IDO according to the concentration of each candidate substance were illustrated in FIGS. 1, 2 and 3.
Through Example 1, candidate substances and concentration combinations thereof selected to search for more functionally reinforced compositions based on the candidate substances and the lowest effective concentrations confirmed to induce the reinforced functions of stem cells were set as shown in Table 1. Mesenchymal stem cells were treated with the candidate combinations described in Table 1 below for 24 hours, and the stem cells were cultured as in Example 1, and then total RNA was isolated using TRIzol (Invitrogen). Then, qRT-PCR was performed by synthesizing cDNA from total RNA using the PrimeScript™ RT reagent Kit with gDNA Eraser (TaKaRa).
Vitamins were known to improve the proliferative ability of stem cells and maintain the stemness of stem cells when added during a stem cell culture process. Accordingly, various vitamins were treated in the stem cell culture process, and experiments were performed to confirm whether or not vitamins could achieve anti-inflammatory and immune function reinforcing effects of stem cells. Specifically, the stem cells were treated with various types of vitamins shown in Table 2 according to the method described in Example 1, and the results of confirming changes in expression of IDO and TSG6 according to treatment with each candidate substance were illustrated in FIG. 5.

Row | Substance | expression of IDO and TSG6 compared to untreated control group 0 | lowest effective concentration capable of inducing significantly increased expression of both TSG6 and IDO [ng/mL]
1 | IFN-α | increased expression of IDO and TSG6 | 20
2 | IFN-γ: cytokine, primary candidate substance for priming stem cells, 10 ng/ml | increased expression of IDO and TSG6 | 10
3 | TNF-α | increased expression of IDO and TSG6 | 10
